ChEMBL document CHEMBL1127453, “Benzimidazole ribonucleosides: design, synthesis, and antiviral activity of certain 2-(alkylthio)- and 2-(benzylthio)-5,6-dichloro-1-(beta-D-ribofuranosyl)benzimidazoles” (J Med Chem, 1994)

Columns and labels:
HFF cells (Homo sapiens) = assay: Tested for the visual cytotoxicity on HFF cells at the time of human cytomegalovirus (HCMV) plaque enumeration
Human alphaherpesvirus 1 = assay: Tested for anti-viral activity against Herpes simplex virus type-1 using ELISA.; assay type: functional, organism-based
Human betaherpesvirus 5 [1] = assay: Activity against human cytomegalovirus (HCMV) using plaque reduction assay; assay type: functional, organism-based
KB = assay: The inhibition of KB cell growth was determined; assay type: functional, cell-based; conditions: Homo sapiens
Human betaherpesvirus 5 [2] = assay: Tested for the activity against human cytomegalovirus (HCMV) using yield reduction assay; assay type: functional

SMILES | IC50 (HFF cells (Homo sapiens)) | IC50 (Human alphaherpesvirus 1) | IC50 (Human betaherpesvirus 5 [1]) | IC50 (KB) | IC90 (Human betaherpesvirus 5 [2])
OC[C@H]1OC(n2c(SCc3ccc(Cl)c(Cl)c3)nc3cc(Cl)c(Cl)cc32)[C@H](O)[C@@H]1O (some centres not stated) | 32 µM | > 30 µM | 28 µM | – | –
O=[N+]([O-])c1cccc(CSc2nc3cc(Cl)c(Cl)cc3n2C2O[C@H](CO)[C@@H](O)[C@H]2O)c1 (some centres not stated) | 32 µM | 50 µM | 40 µM | 25 µM | –
OC[C@H]1OC(n2c(SCc3ccc(Br)cc3)nc3cc(Cl)c(Cl)cc32)[C@H](O)[C@@H]1O (some centres not stated) | 32 µM | 30 µM | 30 µM | 20 µM | –
OC[C@H]1OC(n2c(SCc3cccc(Cl)c3)nc3cc(Cl)c(Cl)cc32)[C@H](O)[C@@H]1O (some centres not stated) | 21 µM | 70 µM | 25 µM | 19 µM | –
O=[N+]([O-])c1ccc(CSc2nc3cc(Cl)c(Cl)cc3n2C2O[C@H](CO)[C@@H](O)[C@H]2O)cc1 (some centres not stated) | 32 µM | 40 µM | 40 µM | 30 µM | –
Cc1ccc(CSc2nc3cc(Cl)c(Cl)cc3n2C2O[C@H](CO)[C@@H](O)[C@H]2O)cc1 (some centres not stated) | 32 µM | > 30 µM | 30 µM | – | –
OC[C@H]1OC(n2c(SCc3ccc(F)cc3)nc3cc(Cl)c(Cl)cc32)[C@H](O)[C@@H]1O (some centres not stated) | 21 µM | > 30 µM | 30 µM | – | –
Nc1nc2c(ncn2COCCO)c(=O)[nH]1 [ACYCLOVIR] | > 100 µM | 1.7 µM | 86 µM | > 100 µM | 85 µM
CC(C)(C)c1ccc(CSc2nc3cc(Cl)c(Cl)cc3n2C2O[C@H](CO)[C@@H](O)[C@H]2O)cc1 (some centres not stated) | 32 µM | 20 µM | 20 µM | 50 µM | –
OC[C@H]1OC(n2c(SCc3cccc(C(F)(F)F)c3)nc3cc(Cl)c(Cl)cc32)[C@H](O)[C@@H]1O (some centres not stated) | 32 µM | 40 µM | 40 µM | 15 µM | –
OC[C@@H]1O[C@@H](n2c(S)nc3cc(Cl)c(Cl)cc32)[C@H](O)[C@@H]1O | 100 µM | – | > 100 µM | – | –
Nc1nc2c(ncn2COC(CO)CO)c(=O)[nH]1 [GANCICLOVIR] | > 100 µM | – | 7.4 µM | – | 1.6 µM
OC[C@H]1OC(n2c(SCc3ccc(Cl)cc3)nc3cc(Cl)c(Cl)cc32)[C@H](O)[C@@H]1O (some centres not stated) | 100 µM | > 30 µM | > 100 µM | – | –
Cc1cccc(CSc2nc3cc(Cl)c(Cl)cc3n2C2O[C@H](CO)[C@@H](O)[C@H]2O)c1 (some centres not stated) | 32 µM | 38 µM | 40 µM | 30 µM | –
OC[C@H]1O[C@@H](n2cnc3cc(Cl)c(Cl)cc32)[C@H](O)[C@@H]1O [DICHLORORIBOBENZIMIDAZOLE] | 24 µM | 30 µM | 42 µM | 100 µM | 19 µM
C=CCSc1nc2cc(Cl)c(Cl)cc2n1C1O[C@H](CO)[C@@H](O)[C@H]1O (some centres not stated) | 24 µM | > 100 µM | > 100 µM | 68 µM | –
O=C(O)P(=O)(O)O [FOSCARNET] | > 100 µM | – | 39 µM | – | –
COc1ccc(CSc2nc3cc(Cl)c(Cl)cc3n2C2O[C@H](CO)[C@@H](O)[C@H]2O)cc1 (some centres not stated) | 66 µM | > 100 µM | 40 µM | 41 µM | –
CS(=O)(=O)c1nc2cc(Cl)c(Cl)cc2n1C1O[C@H](CO)[C@@H](O)[C@H]1O (some centres not stated) | 10 µM | – | 10 µM | – | –
C#CCSc1nc2cc(Cl)c(Cl)cc2n1C1O[C@H](CO)[C@@H](O)[C@H]1O (some centres not stated) | 100 µM | 100 µM | 25 µM | 60 µM | –
N#CCSc1nc2cc(Cl)c(Cl)cc2n1C1O[C@H](CO)[C@@H](O)[C@H]1O (some centres not stated) | 100 µM | > 100 µM | 30 µM | > 100 µM | 10 µM
CSc1nc2cc(Cl)c(Cl)cc2n1[C@@H]1O[C@@H](CO)[C@@H](O)[C@H]1O | > 100 µM | – | > 100 µM | – | –
OC[C@H]1OC(n2c(SCc3ccccc3Cl)nc3cc(Cl)c(Cl)cc32)[C@H](O)[C@@H]1O (some centres not stated) | 32 µM | 60 µM | 40 µM | 30 µM | –
